The text below walks through data of ChEMBL document CHEMBL1201862, “PubChem BioAssay data set” (2004).

The structures appear in SMILES notation.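 In this assay, cells in 96-well plates receive the compound at five concentrations for 48 hours. Endpoints are linearly interpolated between the surrounding concentrations. GI50 marks 50% less growth.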 Activity calls are given as the source filed them. Rule as the data show it: active = GI50 up to about 1.1 µM and inactive = higher. Peptide text beside a SMILES is read from it. * marks the point of attachment. Boc = CC(C)(C)OC(=O)* Where only a bound is given, the exact number is not on record here.

Among the test systems are MDA-N; M14; HL-60; SNB-19; MCF7; IGROV-1; OVCAR-3; NCI-H460; NCI-H522; MDA-MB-231; CCRF-CEM; HCT-15; SK-MEL-5; MOLT-4; SNB-75; KM12; SK-MEL-2; UACC-257; NCI-H226; RXF 393.
What all share (assay): inhibition of tumour cell growth, NCI panel, 48 h

Consider `O=C(/C=C/c1ccc(Cl)c(Cl)c1)Oc1ccc(/C=C2\CCCCC2=O)cc1`, for which the GI50 is > 100 µM (inactive) in the assay on MDA-N; > 100 µM (inactive) in the assay on M14; 25.4 µM (inactive) with HL-60; > 100 µM (inactive) in the assay on SNB-19; > 100 µM (inactive) in the assay with MCF7; > 100 µM (inactive) in the assay with IGROV-1. The GI50 in the assay on OVCAR-3 was > 100 µM (inactive); with NCI-H460, > 100 µM (inactive); in the assay with NCI-H522, 91.8 µM (inactive); with MDA-MB-231 it was > 100 µM (inactive); in the assay with CCRF-CEM, > 100 µM (inactive); in the assay on HCT-15 it was over 100 µM. The GI50 in the assay with SK-MEL-5 was > 100 µM (inactive); in the assay with MOLT-4, 24.6 µM (inactive); in the assay on SNB-75, > 100 µM (inactive); in the assay with KM12, > 100 µM (inactive); with SK-MEL-2, > 100 µM (inactive); in the assay with UACC-257 it was > 100 µM (inactive).
In the case of `CCN(CC)CCCNc1ccc2ncn3c4ccc(O)cc4c(=O)c1c23`, the GI50 was 0.214 µM (active) with NCI-H226; 6.08 µM (inactive) with MDA-N; 0.14 µM (active) with RXF 393; 3.3 µM (inactive) with M14; 2.21 µM (inactive) with SNB-19; 0.687 µM (active) in the assay with MCF7. The GI50 with IGROV-1 is 1.39 µM (inactive); with OVCAR-3, 8.69 µM (inactive); with NCI-H460, 0.105 µM (active); in the assay on NCI-H522 it was 0.851 µM (active); with MDA-MB-231 it was 1.88 µM (inactive); in the assay with CCRF-CEM, 0.166 µM (active). The GI50 was 2.71 µM in the assay on HCT-15; 3.41 µM (inactive) with SK-MEL-5; 0.0411 µM (active) in the assay on MOLT-4; 0.871 µM (active) in the assay on SNB-75; 3.85 µM (inactive) in the assay on KM12; 3.7 µM (inactive) in the assay with SK-MEL-2. The GI50 in the assay with UACC-257 was 11.5 µM (inactive).
Consider `COC(=O)c1c(C)[n+]([O-])c2cc(Cl)c(Cl)cc2[n+]1[O-]`, for which the GI50 was 19.5 µM (inactive) in the assay with MDA-N; 32.9 µM (inactive) in the assay with RXF 393; 24.5 µM (inactive) in the assay on M14; 17.7 µM (inactive) in the assay on HL-60; 27.4 µM (inactive) in the assay on SNB-19; 14.5 µM (inactive) with MCF7. The GI50 in the assay on IGROV-1 is 4.39 µM (inactive); with OVCAR-3, 16.6 µM (inactive); in the assay with NCI-H460, 5.38 µM (inactive); with NCI-H522, 10.1 µM (inactive); with MDA-MB-231, 19.4 µM (inactive); in the assay with CCRF-CEM, 10.4 µM (inactive). Also, the GI50 with HCT-15 is 9.59 µM; in the assay on SK-MEL-5, 8.71 µM (inactive); in the assay with MOLT-4 it was 12.6 µM (inactive); in the assay on KM12, 11.2 µM (inactive); in the assay with SK-MEL-2 it was 19.4 µM (inactive); in the assay with UACC-257, 17.1 µM (inactive).
Turning to `COC(=O)NC(Cc1ccccc1)NC(C)=O` (centres undefined), the GI50 in the assay on MDA-N, in the assay with RXF 393, in the assay on M14, in the assay on HL-60, in the assay with SNB-19 and in the assay on MCF7 was > 100 µM (inactive) in each case. The GI50 with IGROV-1 was > 100 µM (inactive); with OVCAR-3, > 100 µM (inactive); in the assay on NCI-H460 it was > 100 µM (inactive); in the assay with NCI-H522 it was > 100 µM (inactive); in the assay with MDA-MB-231, 71 µM (inactive); in the assay on CCRF-CEM, > 100 µM (inactive). Further, the GI50 in the assay on HCT-15 is over 100 µM; with SK-MEL-5 it was > 100 µM (inactive); with MOLT-4, > 100 µM (inactive); in the assay on SNB-75, > 100 µM (inactive); in the assay with KM12, > 100 µM (inactive); with SK-MEL-2, > 100 µM (inactive). Further, the GI50 in the assay on UACC-257 was > 100 µM (inactive).
As to `OC(c1ccc(F)cc1)C(F)(F)c1nc(-c2ccccc2)no1` (centres undefined), the GI50 in the assay on MDA-N is 23.8 µM (inactive); with M14, 17.9 µM (inactive); in the assay with HL-60 it was 22.5 µM (inactive); in the assay with SNB-19, 36.4 µM (inactive); in the assay with MCF7, 23.7 µM (inactive); in the assay on IGROV-1, > 100 µM (inactive). Further, the GI50 was 16.4 µM (inactive) in the assay with OVCAR-3; 0.0632 µM (active) in the assay on NCI-H460; 2.44 µM (inactive) in the assay on NCI-H522; 2.43 µM (inactive) in the assay on MDA-MB-231; 14.3 µM (inactive) in the assay with CCRF-CEM; 23.9 µM in the assay on HCT-15. In addition, the results for the GI50 in the assay on SK-MEL-2 and with UACC-257 were 18.9 µM (inactive) and 19.6 µM (inactive), respectively.
Turning to `CC(=O)Nc1nc(C)c(S(=O)(=O)NC(=O)N2c3ccccc3CCc3ccccc32)s1`, the GI50 in the assay on MDA-N is > 100 µM (inactive); in the assay on RXF 393, > 100 µM (inactive); in the assay on M14, > 100 µM (inactive); with HL-60 it was > 100 µM (inactive); in the assay on SNB-19 it was 29.4 µM (inactive); in the assay with MCF7, > 100 µM (inactive). For the same molecule, the GI50 was > 100 µM (inactive) in the assay with IGROV-1; > 100 µM (inactive) in the assay with OVCAR-3; > 100 µM (inactive) in the assay with NCI-H460; > 100 µM (inactive) in the assay on NCI-H522; > 100 µM (inactive) with MDA-MB-231; 44.6 µM (inactive) in the assay on CCRF-CEM. The GI50 with HCT-15 is over 100 µM; with SK-MEL-5 it was > 100 µM (inactive); in the assay with MOLT-4 it was 89.5 µM (inactive); in the assay on SNB-75, > 100 µM (inactive); with KM12 it was > 100 µM (inactive); in the assay with SK-MEL-2, > 100 µM (inactive). Moreover, the GI50 in the assay with UACC-257 was > 100 µM (inactive).
As for `CC(C)(C)OC(=O)NCC(=O)N1CCN(C(=O)CNC(=O)OC(C)(C)C)CC1`, the GI50 in the assay with NCI-H226, with MDA-N, in the assay with M14, in the assay with HL-60, in the assay on SNB-19 and with MCF7 was > 100 µM (inactive) throughout. Also, the GI50 was > 100 µM (inactive) with IGROV-1; > 100 µM (inactive) in the assay on OVCAR-3; 2.55 µM (inactive) in the assay with NCI-H522; > 100 µM (inactive) in the assay with MDA-MB-231; > 100 µM (inactive) in the assay with CCRF-CEM; over 100 µM in the assay on HCT-15. Besides, the GI50 with SK-MEL-5, with MOLT-4, with KM12, with SK-MEL-2 and with UACC-257 was > 100 µM (inactive) each time.
For `COC(=O)C1=Nc2c(C)nn(-c3ccccc3)c2N=C(c2ccc([N+](=O)[O-])cc2)C1`, the GI50 with MDA-N, in the assay with M14, in the assay on HL-60, in the assay on SNB-19, with MCF7 and with IGROV-1 was > 10 µM (inactive) throughout. Moreover, the GI50 is > 10 µM (inactive) in the assay with OVCAR-3; > 10 µM (inactive) with NCI-H522; > 10 µM (inactive) in the assay with MDA-MB-231; > 10 µM (inactive) in the assay with CCRF-CEM; over 10 µM with HCT-15; > 10 µM (inactive) in the assay with SK-MEL-5. For the same molecule, the GI50 in the assay on MOLT-4, in the assay on SNB-75, in the assay on KM12 and with UACC-257 was > 10 µM (inactive) throughout.
Take `CCc1n[nH]c(=O)[nH]1`: the GI50 is > 100 µM (inactive) with MDA-N; > 100 µM (inactive) in the assay with RXF 393; > 100 µM (inactive) in the assay on M14; > 10 µM (inactive) with HL-60; > 100 µM (inactive) with SNB-19; > 100 µM (inactive) in the assay on MCF7. Moreover, the GI50 with IGROV-1, in the assay on OVCAR-3, with NCI-H460, with NCI-H522, in the assay with MDA-MB-231 and in the assay on CCRF-CEM was > 100 µM (inactive) each time. The GI50 in the assay on HCT-15 is over 100 µM; in the assay on SK-MEL-5 it was > 100 µM (inactive); in the assay on MOLT-4, > 100 µM (inactive); in the assay on SNB-75, > 100 µM (inactive); in the assay on KM12, > 100 µM (inactive); with SK-MEL-2, > 100 µM (inactive). Moreover, in the assay with UACC-257, the GI50 is > 100 µM (inactive).
On to `C[N+](C)(C)CC1CCC(C[N+](C)(C)C)C1=O` (centres undefined), for which the GI50 with NCI-H226 is 12.9 µM (inactive); with MDA-N, 4.94 µM (inactive); in the assay on RXF 393 it was 1.91 µM (inactive); in the assay with M14 it was 1.72 µM (inactive); in the assay with SNB-19 it was 17.9 µM (inactive); with MCF7, 1.75 µM (inactive). Also, the GI50 with IGROV-1 was 7.94 µM (inactive); in the assay on OVCAR-3 it was 2.39 µM (inactive); in the assay on NCI-H460, 24.3 µM (inactive); in the assay on NCI-H522 it was 0.2 µM (active); with MDA-MB-231 it was 19.6 µM (inactive); in the assay on HCT-15, 1.78 µM. Besides, the GI50 with SK-MEL-5 is 9.02 µM (inactive); in the assay with SNB-75, 1.95 µM (inactive); in the assay with KM12, 4.65 µM (inactive); in the assay with SK-MEL-2 it was 14.9 µM (inactive); in the assay on UACC-257, 2.92 µM (inactive).
As to `COC(=O)C(Cc1c[nH]c2ccccc12)NC(=O)C(Cc1c[nH]c2ccccc12)NC(=O)C(Cc1c[nH]c2ccccc12)NC(=O)C(Cc1c[nH]c2ccccc12)NC(=O)C(Cc1c[nH]c2ccccc12)NC(=O)OC(C)(C)C` (centres undefined) (Boc-WWWWW-OMe; configuration not given here), the GI50 is 42 µM (inactive) in the assay on NCI-H226; 92 µM (inactive) in the assay on MDA-N; 33.3 µM (inactive) in the assay on M14; 33 µM (inactive) in the assay with HL-60; 39 µM (inactive) in the assay on SNB-19; 84.1 µM (inactive) in the assay with MCF7. Also, the GI50 in the assay on IGROV-1 was 30 µM (inactive); in the assay with OVCAR-3 it was > 100 µM (inactive); in the assay on NCI-H460, 84.1 µM (inactive); in the assay on NCI-H522, 46 µM (inactive); with MDA-MB-231, > 100 µM (inactive); in the assay with CCRF-CEM it was 74 µM (inactive). Further, the GI50 is over 100 µM in the assay with HCT-15; 17.5 µM (inactive) with SK-MEL-5; 19.6 µM (inactive) in the assay on MOLT-4; 36.5 µM (inactive) in the assay on SNB-75; 45.2 µM (inactive) in the assay on SK-MEL-2; > 100 µM (inactive) with UACC-257.
